Values joined by “and” are separate entries in the source; they are usually repeats but may differ in a detail not shown here. Equal entries are not always repeated.
Legend:
C57B1/6 ob/ob mouse = test: Fed plasma cholesterol; format: in vivo; conditions: ob/ob mice, individual values
Protocol: Blood samples were also taken at −30 minutes for insulin analysis. • e) Blood Glucose analysis: Duplicate 20 μl samples of blood of were taken for each individual sample and placed in a 96-well assay plate. To each well was added 180 μl aliquots of glucose oxidase reagent. Samples were mixed and then left for approximately 30 minutes. Samples were then analysed automatically using a SpectraMax-250 and SoftMax Pro software. • f) Plasma preparation: Blood was collected for the measurement of i) plasma insulin, ii) cholesterol, iii) free fatty acids or iv) triglyceride concentration. • i. Plasma insulin analysis: Plasma insulin was measured using 5 μl of plasma, compared with a mouse insulin standard using a 96-well micro-assay plate • ii. Plasma cholesterol analysis: To each sample was added 200 μl of infinity cholesterol liquid stable reagent. The samples were mixed and incubated for 5 minutes before reading at dual wavelengths of 500 and 660 nm. • iii. Plasma free fatty acids: 5 μl samples of plasma were measured into a 96-well assay plate, to which was added 0.2 ml of reagents NEFA C • iv. Plasma triglycerides analysis: To each well 200 μl aliquots of triglycerides reagent. […] Comparison with a calibrated standard allowed identification of types of tissue by their density. Dedicated software was using to quantify amounts of bone and fat. The mice were lightly anaesthetised, sufficient to keep them quiescent during this non-invasive technique. • h) Energy expenditure measurements: Energy expenditure was measured by open circuit indirect calorimetry with mice in their home cages. For studies of 24 h energy expenditure, mice were dosed with their allocated treatment and then measurements commenced. […] Plasma leptin was measured in fed mice using the Crystal Chem Elisa assay. • j) Plasma adiponectin: Adiponectin exerts some of its weight reduction effects via the brain. […] Plasma adiponectin was measured in overnight fasted mice using the 96-well B-Bridge Elisa assay. • k) Plasma HDL-cholesterol: Plasma HDL-cholesterol was measured in fed mice using the kit from Trinity Biotech. • l) 24 h blood glucose profile: This was determined in order to ensure that changes in the diurnal control of blood glucose were detected. Thus blood samples were obtained at three hourly intervals throughout a continuous 24 h period. • m) Plasma haemoglobin AIC: Samples (10 μl) were analysed using the AIC. […] Morphology was assessed using hematoxylin and eosin staining. • p) Liver glycogen: After centrifugation (3000×g for 15 min), an aliquot of the supernatant (10 μl) is assayed using the glucose oxidase method. […] The residue is dissolved in 200 μl ethanol and triglyceride content measured. […]

rat isolated aortae = test: In vitro vascular studies by wire myography; conditions: for Time-dependent relaxation of pre-contracted aorta: 2 h (120 min)
[1] = 3.0 mg·kg−1 daily oral gavage (combination: both 3.0)

Row | Structure (SMILES) | Fed plasma cholesterol day 28 (C57B1/6 ob/ob mouse; [1]) | Fed plasma cholesterol day 28 (C57B1/6 ob/ob mouse; 3.0 mg·kg−1 daily oral gavage (combination: both 3.0), listed as Pure CBD) | Potency and maximal contractile response to re-introduction of calcium (rat isolated aortae; calcium free, high potassium Krebs-Hensleit solution, CBD from 1 μM to 30 μM) | Vasorelaxant effect in arteries contracted with high potassium buffer (rat isolated aortae; compared with control) | Vasorelaxant effect, tone induced with U46619 in calcium free buffer (rat isolated aortae; compared with control) | Vasorelaxant effect in endothelium-denuded versus control aortae (rat isolated aortae; rat aorta) | Time-dependent relaxation of pre-contracted aorta (rat isolated aortae; rat aorta, 10 μM) [% relaxation] | Residual relaxation (vasorelaxant effect minus effect of vehicle and time) (rat isolated aortae; rat aorta, 10 μM, after 2 h) [% relaxation] | Basal tension over time (rat isolated aortae; rat aorta, 2 h) [g] | Time-dependent vascular responses in the presence of AM251 (rat isolated aortae; rat aorta, CB1 antagonist AM251 1 μM) | Residual vasorelaxant effects in the presence of SR144528 (rat isolated aortae; rat aorta, CB2 antagonist SR144528 1 μM, between 45 min to 90 min) | Residual vasorelaxant effect in the presence of L-NAME (rat isolated aortae; rat aorta, L-NAME 300 μM, versus control conditions) | Residual vasorelaxant effect in the presence of GW9662 (rat isolated aortae; rat aorta, PPARγ antagonist GW9662 1 μM, after 1 h of incubation) | Vascular response over time after pre-treatment with PTX or capsaicin (rat isolated aortae; rat arteries, PTX 200 ng ml−1, 2 h or capsaicin 10 μM, 1 h) | Fed plasma cholesterol day 28 (C57B1/6 ob/ob mouse; 0.3 mg·kg−1 daily oral gavage (combination: both 0.3)) | Time without effect on tone (rat isolated aortae; pre-contracted aortae, 10 μM) [min]
1 | C=C(C)[C@@H]1CCC(C)=C[C@H]1c1c(O)cc(CCCCC)cc1O [CBD, cannabidiol] | reduced the total plasma cholesterol concentration and 3.64 and 4.22 and 3.77 and 5.02 and 2.90 and 5.38 and 3.50 | reduced the total plasma cholesterol | significantly reduced in a concentration-dependent manner | no difference | significantly blunted | similar | 69.7±4.0 | 50.1±3.3 | -0.03 ± 0.01 | did not significantly affect | significantly inhibited | not different | significantly reduced | no effect |  | 
2 | CCCc1cc(O)c2c(c1)OC(C)(C)[C@@H]1CCC(C)=C[C@@H]21 [THCV, tetrahydrocannabivarin] | 6.30 and 6.94 and 6.59 and 6.20 and 7.22 and 6.46 and 7.66 and 7.05 |  |  |  |  |  | 28.7±4.6 |  |  |  |  |  |  |  | 7.12 and 8.60 and 6.43 and 5.99 and 6.21 and 6.45 and 5.93 and 5.62 | > 105
